Patent EP2698385A1, “Detection of synthetic cannabinoids” (priority 2012, dated 2014)
Like-named read-outs stand apart in the source and are kept apart here.

What was measured:
Format in all cases: binding, sheep
[1] = system: Antibody to Immunogen I
In short: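 Sheep anti-Immunogen I IgG coated on plates, then JWH-018 standards (0–40 ng/ml) competed with hapten-HRP conjugate for 1 h at 25°C. TMB read-out at 450 nm, 4-parameter fit. IC50 is the standard concentration giving 50% B/B0; cross-reactivity of related cannabinoids taken from the calibration curves.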

[2] = system: Antibody to Immunogen VII; conditions: Cross-reactants at 100 ng/ml; Antibody to Immunogen VII
[3] = system: Antibody to Immunogen IV
[4] = Cross-reactants at 100 ng/ml, Antibody to Immunogen I
[5] = Cross-reactants at 100 ng/ml, Antibody to Immunogen IV

| Structure (SMILES) | %B/B0 [1, 4] | %B/B0 [2] | %B/B0 [3, 5] | further results |
| --- | --- | --- | --- | --- |
| O=C(c1cccc2ccccc12)c1c[nH]c2ccccc12 [3-(1-naphthoyl)-1H-Indole, 3-(1-naphthoyl)-1H-indole] | 15.63% | 80.08% | 95.55% | – |
| CCCCCn1cc(C(=O)c2cccc3ccccc23)c2ccc(O)cc21 [JWH-018 6-hydroxyindole metabolite] | 8.07% | 68.17% | 51.00% | – |
| O=C(c1cccc2ccccc12)c1cn(CCN2CCOCC2)c2ccccc12 [WIN 55,225 (other name JWH-200), JWH-200] | 3.51% | 42.85% | 77.08% | – |
| O=C(O)CCCCn1cc(C(=O)c2cccc3ccccc23)c2ccccc21 [JWH-018 N-pentanoic acid metabolite] | 4.51% | 53.02% | 99.89% | – |
| CCCCCn1cc(C(=O)c2cccc3ccccc23)c2ccccc21 [JWH-018] | 5.19% | 67.66% | 6.80% | %B/B0 ([1]; JWH-018 standard 0.625 ng/ml): 77%; %B/B0 ([1]; JWH-018 standard 1.25 ng/ml): 62%; %B/B0 ([1]; JWH-018 standard 2.5 ng/ml): 44%; %B/B0 ([1]; JWH-018 standard 5 ng/ml): 31%; %B/B0 ([1]; JWH-018 standard 10 ng/ml): 20%; %B/B0 ([1]; JWH-018 standard 20 ng/ml): 14%; %B/B0 ([1]; JWH-018 standard 40 ng/ml): 9%; IC50 ([1]; Table 3a standard curve, standard concentration which produces 50% B/B0): 2.016 ng/mL; %B/B0 ([3]; JWH-018 standard 1.25 ng/ml): 87%; %B/B0 ([3]; JWH-018 standard 2.5 ng/ml): 68%; %B/B0 ([3]; JWH-018 standard 5 ng/ml): 42%; %B/B0 ([3]; JWH-018 standard 10 ng/ml): 26%; %B/B0 ([3]; JWH-018 standard 20 ng/ml): 16%; %B/B0 ([3]; JWH-018 standard 40 ng/ml): 10%; %B/B0 ([3]; JWH-018 standard 80 ng/ml): 7%; IC50 ([3]; Table 3b standard curve, standard concentration which produces 50% B/B0): 4.133 ng/mL |
| CCCCCn1cc(C(=O)c2ccc(Cl)c3ccccc23)c2ccccc21 [JWH-398] | 60.31% | 94.47% | 6.00% | – |
| CCCCn1cc(C(=O)c2cccc3ccccc23)c2ccccc21 [JWH-073] | 3.56% | 58.34% | 13.63% | – |
| O=C(c1cccc2ccccc12)c1cn(CCCCCO)c2ccccc12 [JWH-018 N-(5-hydroxypentyl) metabolite] | 3.50% | 53.32% | 78.42% | – |
| CCCCCn1cc(C(=O)c2cccc3ccccc23)c2cc(O)ccc21 [JWH-018 5-hydroxyindole metabolite] | 11.79% | 85.76% | 78.56% | – |
| CCCCCn1cc(C(=O)c2cccc3ccccc23)c2c(O)cccc21 [JWH-018 4-hydroxyindole metabolite] | 46.39% | 89.96% | 20.42% | – |
